Measured values taken from US10703756B2, “Pyrrolo[2,3-D]pyrimidinyl, pyrrolo[2,3-B]pyrazinyl, pyrrolo[2,3-B]pyridinyl acrylamides and epoxides thereof” (Pfizer Inc., priority 2015, dated 2020).

What was measured:
JAK3 enzyme [1] = biological target: T1, JAK3 enzyme (Homo sapiens, UniProt P52333); experiment: JAK Caliper Enzyme Assay at 1 mM ATP; format: biochemical
T1 sequence (P52333 1-1124): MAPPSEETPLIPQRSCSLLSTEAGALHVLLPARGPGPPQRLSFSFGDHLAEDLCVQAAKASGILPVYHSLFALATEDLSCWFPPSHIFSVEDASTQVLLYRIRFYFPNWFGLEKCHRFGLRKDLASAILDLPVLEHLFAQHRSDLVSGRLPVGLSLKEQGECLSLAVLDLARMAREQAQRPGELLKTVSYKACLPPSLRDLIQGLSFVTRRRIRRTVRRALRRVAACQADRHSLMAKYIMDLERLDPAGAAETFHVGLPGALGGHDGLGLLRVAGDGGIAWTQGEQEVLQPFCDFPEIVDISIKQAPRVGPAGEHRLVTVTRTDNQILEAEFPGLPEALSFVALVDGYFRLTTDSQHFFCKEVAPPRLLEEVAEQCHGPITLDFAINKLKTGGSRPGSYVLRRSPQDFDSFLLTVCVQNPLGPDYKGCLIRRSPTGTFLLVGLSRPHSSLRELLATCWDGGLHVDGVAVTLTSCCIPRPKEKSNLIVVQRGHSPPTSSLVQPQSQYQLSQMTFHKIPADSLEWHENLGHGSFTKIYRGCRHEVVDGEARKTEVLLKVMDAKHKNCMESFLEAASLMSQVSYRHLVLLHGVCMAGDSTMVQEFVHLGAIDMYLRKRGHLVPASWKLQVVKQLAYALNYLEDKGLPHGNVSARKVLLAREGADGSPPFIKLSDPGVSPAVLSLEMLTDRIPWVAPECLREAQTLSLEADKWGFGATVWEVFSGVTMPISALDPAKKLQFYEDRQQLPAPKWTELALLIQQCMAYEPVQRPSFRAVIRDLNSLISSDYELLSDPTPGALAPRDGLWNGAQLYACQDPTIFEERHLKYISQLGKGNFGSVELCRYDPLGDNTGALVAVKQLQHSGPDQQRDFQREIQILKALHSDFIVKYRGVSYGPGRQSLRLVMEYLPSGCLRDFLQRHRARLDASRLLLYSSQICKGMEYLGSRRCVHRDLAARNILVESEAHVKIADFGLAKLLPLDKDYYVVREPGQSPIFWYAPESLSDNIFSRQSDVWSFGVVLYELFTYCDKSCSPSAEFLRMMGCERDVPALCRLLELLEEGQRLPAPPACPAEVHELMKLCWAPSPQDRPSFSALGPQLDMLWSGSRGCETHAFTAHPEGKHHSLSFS
Method: (§1) Test article was solubilized in dimethyl sulfoxide (DMSO) to a stock concentration of 30 mM. An 11-point half log dilution series was created in DMSO with a top concentration of 600 μM. […] Test article and assay controls were added to a 384-well plate. […] Enzyme concentrations and incubation times were optimized for each new enzyme preps and were modified slightly over time to ensure 20%-30% phosphorylation. […] The assay plates were placed on a Caliper Life Science Lab Chip 3000 (LC3000) instrument, and each well was sampled using appropriate separation conditions to measure the unphosphorylated and phosphorylated peptide.

JAK3 enzyme [2] = biological target: T1, JAK3 enzyme; experiment: JAK Caliper Enzyme Assay at 4 μM ATP; format: biochemical
Method: as §1

Row | Compound | IC50 (JAK3 enzyme [1]) | IC50 (JAK3 enzyme [2])
1 | C=CC(=O)N1CCN(c2cnc3[nH]cc(C(=O)N[C@@H](CO)c4ccc(F)cc4)c3n2)CC1(C)C [Example 146, 2-(4-acryloyl-3,3-dimethylpiperazin-1-yl)-N-[(1R)-1-(4-fluorophenyl)-2-hydroxyethyl]-5H-pyrrolo[2,3-b]pyrazine-7-carboxamide] | 1370 nM | 12.2 nM
2 | C=CC(=O)N1CCN(c2cnc3[nH]cc(C(=O)N[C@@H](C)COc4ccccc4)c3n2)CC1(C)C [Example 147, 2-(4-acryloyl-3,3-dimethylpiperazin-1-yl)-N-[(2S)-1-phenoxypropan-2-yl] 5H-pyrrolo[2,3-b]pyrazine-7-carboxamide] | 3710 nM | 41.7 nM
3 | C=CC(=O)N1CCN(c2cnc3[nH]cc(C(=O)N[C@H]4CCOC4)c3n2)CC1(C)C [Example 150, 2-(4-acryloyl-3,3-dimethylpiperazin-1-yl)-N-[(3S)-tetrahydrofuran-3-yl] 5H-pyrrolo[2,3-b]pyrazine-7-carboxamide] | 1110 nM | 8.09 nM
4 | C=CC(=O)N1CCN(c2cnc3[nH]cc(C(=O)NC(C)(C)COC)c3n2)CC1(C)C [Example 151, 2-(4-acryloyl-3,3-dimethylpiperazin-1-yl)-N-(1-methoxy-2-methylpropan-2-yl)-5H-pyrrolo[2,3-b]pyrazine-7-carboxamide] | 1520 nM | 13.6 nM
5 | C=CC(=O)N1CCN(c2cnc3[nH]cc(C(=O)N[C@@H](C)[C@H](O)c4ccccc4)c3n2)CC1(C)C [Example 156, 2-(4-acryloyl-3,3-dimethylpiperazin-1-yl)-N-[(1R,2S)-1-hydroxy-1-phenylpropan-2-yl]-5H-pyrrolo[2,3-b]pyrazine-7-carboxamide] | 4090 nM | 28.9 nM
6 | C=CC(=O)N1CCN(c2cnc3[nH]cc(C(=O)N[C@@H](CO)Cc4cccc(C#N)c4)c3n2)CC1(C)C [Example 157, 2-(4-acryloyl-3,3-dimethylpiperazin-1-yl)-N-[(2R)-1-(3-cyanophenyl)-3-hydroxypropan-2-yl]-5H-pyrrolo[2,3-b]pyrazine-7-carboxamide] | 2900 nM | 20.6 nM
7 | C=CC(=O)N1CCN(c2cnc3[nH]cc(C(=O)N[C@@H]4COC[C@@H]4n4cc(F)cn4)c3n2)CC1(C)C [Example 159, 2-(4-acryloyl-3,3-dimethylpiperazin-1-yl)-N-[(3S,4R)-4-(4-fluoro-1H-pyrazol-1-yl)tetrahydrofuran-3-yl]-5H-pyrrolo[2,3-b]pyrazine-7-carboxamide] | 865 nM | 6.31 nM
8 | C=CC(=O)N1CCN(c2cnc3[nH]cc(C(=O)N[C@@H]4CCO[C@H]4C)c3n2)CC1(C)C [Example 160, 3-({[2-(4-acryloyl-3,3-dimethylpiperazin-1-yl)-5H-pyrrolo[2,3-b]pyrazin-7-yl]carbonyl}amino)-2,5-anhydro-1,3,4-trideoxy-D-erythro-pentitol] | 463 nM | 4.33 nM
9 | C=CC(=O)N1CCN(c2cnc3[nH]cc(C(=O)N[C@H](CO)CCC)c3n2)CC1(C)C [Example 161, 2-(4-acryloyl-3,3-dimethylpiperazin-1-yl)-N-[(2S)-1-hydroxypentan-2-yl] 5H-pyrrolo[2,3-b]pyrazine-7-carboxamide] | 1120 nM | 7.35 nM
10 | C=CC(=O)N1CCN(c2cnc3[nH]cc(C(=O)N[C@@H](c4ccccc4)C(C)(C)O)c3n2)CC1(C)C [Example 162, 2-(4-acryloyl-3,3-dimethylpiperazin-1-yl)-N-[(1S)-2-hydroxy-2-methyl-1-phenylpropyl]-5H-pyrrolo[2,3-b]pyrazine-7-carboxamide] | 581 nM | 6.19 nM
11 | C=CC(=O)N1CCN(c2cnc3[nH]cc(C(=O)N[C@H](C)COc4ccccc4)c3n2)CC1(C)C [Example 167, 2-(4-acryloyl-3,3-dimethylpiperazin-1-yl)-N-[(2R)-1-phenoxypropan-2-yl]-5H-pyrrolo[2,3-b]pyrazine-7-carboxamide] | 599 nM | 4.61 nM
12 | C=CC(=O)N1CCN(c2cnc3[nH]cc(C(=O)N[C@@H]4COc5ccccc5C4)c3n2)CC1(C)C [Example 168, 2-(4-acryloyl-3,3-dimethylpiperazin-1-yl)-N-[(3S)-3,4-dihydro-2H-chromen-3-yl]-5H-pyrrolo[2,3-b]pyrazine-7-carboxamide] | 769 nM | 7.76 nM
13 | C=CC(=O)N1CCN(c2cnc3[nH]cc(C(=O)N[C@H](C)COCc4ccccc4)c3n2)CC1(C)C [Example 169, 2-(4-acryloyl-3,3-dimethylpiperazin-1-yl)-N-[(2R)-1-(benzyloxy)propan-2-yl]-5H-pyrrolo[2,3-b]pyrazine-7-carboxamide] | 845 nM | 7.31 nM
14 | C=CC(=O)N1CCC(Nc2cnc3[nH]cc(C(=O)NCc4nc5ccc(F)cc5o4)c3n2)CC1 [Example 194, 2-[(1-acryloylpiperidin-4-yl)amino]-N-[(6-fluoro-1,3-benzoxazol-2-yl)methyl]-5H-pyrrolo[2,3-b]pyrazine-7-carboxamide] | 22 nM | 0.993 nM
15 | C=CC(=O)N1CCC(Oc2cnc3[nH]cc(C(=O)N[C@H](C(C)C)[C@@H](O)C(F)(F)F)c3n2)CC1 [Example 202, 2-[(1-acryloylpiperidin-4-yl)oxy]-N-[(2R,3R)-1,1,1-trifluoro-2-hydroxy-4-methylpentan-3-yl]-5H-pyrrolo[2,3-b]pyrazine-7-carboxamide] | 697 nM | 5.31 nM
16 | C=CC(=O)N1CCC(Oc2cnc3[nH]cc(C(=O)NCC4(O)CCC(F)(F)CC4)c3n2)CC1 [Example 207, 2-[(1-acryloylpiperidin-4-yl)oxy]-N-[(4,4-difluoro-1-hydroxycyclohexyl)methyl]-5H-pyrrolo[2,3-b]pyrazine-7-carboxamide] | 538 nM | 4.07 nM
17 | C=CC(=O)N1CCC(Oc2cnc3[nH]cc(C(=O)NC[C@@]4(O)CCCC[C@H]4F)c3n2)CC1 [Example 208, 2-[(1-acryloylpiperidin-4-yl)oxy]-N-{[(2R)-2-fluoro-1-hydroxycyclohexyl]methyl}-5H-pyrrolo[2,3-b]pyrazine-7-carboxamide] | 734 nM | 6.99 nM
18 | C=CC(=O)N1CCC(Oc2cnc3[nH]cc(C(=O)N[C@@H]4C[C@H]4C(F)(F)F)c3n2)CC1 [Example 216, 2-[(1-acryloylpiperidin-4-yl)oxy]-N-[(1R,2R)-2-(trifluoromethyl)cyclopropyl]-5H-pyrrolo[2,3-b]pyrazine-7-carboxamide] | 463 nM | 3.27 nM
19 | C=CC(=O)N1CCC(Oc2cnc3[nH]cc(C(=O)NCC(C)(C)C)c3n2)CC1 [Example 221, 2-[(1-acryloylpiperidin-4-yl)oxy]-N-(2,2-dimethylpropyl)-5H-pyrrolo[2,3-b]pyrazine-7-carboxamide] | 713 nM | 4.4 nM
20 | C=CC(=O)N1C[C@H](Nc2cnc3[nH]cc(C(=O)NCCOC)c3n2)[C@@](C)(C#N)C1 [Example 232, 2-{[(3R,4S)-1-acryloyl-4-cyano-4-methylpyrrolidin-3-yl]amino}-N-(2-methoxyethyl)-5H-pyrrolo[2,3-b]pyrazine-7-carboxamide] | 606 nM | 2.5 nM
21 | C=CC(=O)N1C[C@H](Nc2cnc3[nH]cc(C(=O)NCCOC)c3n2)C[C@H]1COCC [Example 233, 2-{[(3R,5S)-1-acryloyl-5-(ethoxymethyl)pyrrolidin-3-yl]amino}-N-(2-methoxyethyl)-5H-pyrrolo[2,3-b]pyrazine-7-carboxamide] | 1100 nM | 6.79 nM
22 | C=CC(=O)N1CC[C@@H](Nc2cnc3[nH]cc(C(=O)NCC)c3n2)C1 [Example 234, 2-{[(3R)-1-acryloylpyrrolidin-3-yl]amino}-N-ethyl-5H-pyrrolo[2,3-b]pyrazine-7-carboxamide] | 2270 nM | 17.9 nM
23 | C=CC(=O)N1CC(Nc2cnc3[nH]cc(C(=O)NCC(C)C)c3n2)C2(CC2)C1 (stereo not shown) [Example 236, 2-[(5-acryloyl-5-azaspiro[2.4]hept-7-yl)amino]-N-(2-methylpropyl)-5H-pyrrolo[2,3-b]pyrazine-7-carboxamide] | 6550 nM | 45.1 nM
